In US20160198747A1, “1H-PYRROLE-DICARBONYL-DERIVATIVES AND THEIR USE AS FLAVORING AGENTS” (IMAX DISCOVERY GMBH, priority 2013, published 2016):
“Also recorded” adds a separate entry of the source.

Legend:
[1] = as described in US 2009/0311401; cited from earlier work
[2] = test system: group of 16 trained panelists; experiment: Sensory Test 2: trained panelists score a beef broth (bouillon) on eight descriptors; format: in vivo, human; details: scale 0 to 6, average of 16 panelists
From the text: A group of 16 trained panelists was instructed to evaluate the taste of a broth (bouillon) containing 0.5 wt. % of beef extract (Ref-beef) according to eight different descriptors in several repetitions. In a next step, these panelists were asked to rate said reference beef broth “Ref-beef” (presented at each testing session as a reference) against the following two different compositions consisting of “Ref-beef” and additionally a specific amount of the respective to be tested substance:
“Beef-I”=“Ref-beef”+10 ppm of the compound of Formula (I) of Synthesis Example 1,
“Beef-MSG”=“Ref-beef”+500 ppm (0.05 wt. %) of MSG
“Beef-MSG” was used as a positive umami standard.
The panelists judged the strength/intensity of the eight different descriptors in each case by awarding scores on a scale of from 0 (not corresponding to descriptor) to 6 (very strong). The results are present in the following table and FIGURE. All data are the averaged values for the group of 16 trained panelists for the respective scores for each descriptor.

[3] = test system: expert panel (8 panelists); experiment: Sensory Test 1: expert panel, aqueous solution, sipping, holding 10 seconds, spitting out; format: in vivo, human
Experimental: An expert panel (8 panelists) evaluated the sensory properties of the compound of Formula (I) of Synthesis Example 1. The compound of Formula (I) of Synthesis Example 1 was first dissolved in ethanol and then added in the corresponding amount in water. The aqueous solution was evaluated by sipping, holding it in the mouth for 10 seconds, and then spitting it out. The description “accumulating” means that the flavor perception gradually (further) increases a few seconds after taking the solution into the mouth, often even some time after the solution has been spit out.

[4] = Sensory Test 3: Sip and Spit evaluation in water, bouillons, meat products and snacks; format: in vivo, human
Experimental: An additional sensory analysis was performed for the compound of Formula (I) of Synthesis Example 1, by “Sip and Spit” for all evaluations and the key results are summarized in the following table.

[5] = test system: bacterial strains of Salmonella typhimurium; experiment: in vitro Ames plate incorporation test; format: cell-based
From the text: (§1) A particularly preferred compound of the invention is 4-ethyl 2-pyridin-2-ylmethyl-3,5-dimethyl-1H-pyrrole-2,4-dicarboxylate. […] It performs as a MSG replacer at the concentration of 4-20 ppm, depending on the application, whereas at the concentration of 0.5-10 ppm, depending on the application, it performs as a MSG enhancer. The compound is not mutagenic in a standard in vitro Ames plate incorporation test in bacterial strains of Salmonella typhimurium either in the absence or presence of metabolic activation.

solubility = format: physicochemical
[6] = stability to heat and to day-light; format: physicochemical
human sensory panel = human sensory panel (summary statement); format: in vivo
From the text: as §1

[7] = Beef-MSG = Ref-beef (broth, 0.5 wt. % beef extract) + 500 ppm (0.05 wt. %) MSG
[8] = Beef-I = Ref-beef (broth, 0.5 wt. % beef extract) + 10 ppm compound

CCNC(=O)O[C@H]1C[C@H](C)CC[C@H]1C(C)C (racemic) [racemate of (1S,2S,5R)-2-isopropyl-5-methylcyclohexyl ethyl carbamate, (1S,2S,5R)-2-isopropyl-5-methylcyclohexyl ethyl carbamate]
flavor profile [1]: cooling, umami, menthol note

N[C@@H](CCC(=O)O)C(=O)[O-].[Na+] [MSG, monosodium glutamate, reference compound]
Long-lastingness score [2, 7]: 4.3
Meaty score [2, 7]: 5.3
Mouth-watering score [2, 7]: 4.4
Mouthfeel score [2, 7]: 4.8
Roasty score [2, 7]: 3.8
Salty score [2, 7]: 2.5
Sour score [2, 7]: 2.9
Sweet score [2, 7]: 2.1

CCOC(=O)c1c(C)[nH]c(C(=O)OCc2ccccn2)c1C [Synthesis Example 1, 3,5-dimethyl-1H-pyrrole-2,4-dicarboxylic acid, 4-ethyl 2-(2-pyridinylmethyl)ester]
Description of sensory effects ([3]; 3 ppm + 0.05 wt. % MSG in water): Strong umami, meaty, mouthfeel,; also recorded: mouth-watering
Description of sensory effects ([3]; 3 ppm in water): Strong umami, slightly metallic,; also recorded: some delay but lingering
Description of sensory effects ([3]; 30 ppm + 0.05 wt. % MSG in water): Umami, meaty, accumulating
Description of sensory effects ([3]; 30 ppm in water): Strong umami, long lasting
Long-lastingness score [2, 8]: 5.4
Meaty score [2, 8]: 5.5
Mouth-watering score [2, 8]: 4.9
Mouthfeel score [2, 8]: 5.5
Roasty score [2, 8]: 3.9
Salty score [2, 8]: 2.7
Sour score [2, 8]: 2.9
Sweet score [2, 8]: 1.5
MSG ENHANCEMENT Chicken Bouillon + 0.01% MSG vs. 0.04% MSG, sensory description ([4]; 0.5 ppm in chicken bouillon + 0.01% MSG): warm, meaty; also recorded: fatty, slightly salty, round,; also recorded: slight sweet, good impact,
Performance in Salted Water, sensory description ([4]; 3 ppm in salted water): clean, sweet umami, good
Performance in Water, sensory description ([4]; 3 ppm in water): clean, sweet umami, good
MSG REPLACEMENT Chicken Bouillon vs. 0.04% MSG, sensory description ([4]; 4 ppm in chicken bouillon): good, round, nice, clean
MSG ENHANCEMENT Sour Cream & Onion Chips + 0.05% MSG vs. 0.4% MSG, sensory description ([4]; 6 ppm in sour cream & onion chips + 0.05% MSG): umami, pleasant, good
MSG ENHANCEMENT Crackers + 0.03% MSG vs. 0.1% MSG, sensory description ([4]; 10 ppm in crackers + 0.03% MSG): umami, salivating, good
MSG ENHANCEMENT Marinated Chicken + 0.05% MSG vs. 0.3% MSG, sensory description ([4]; 10 ppm in marinated chicken + 0.05% MSG): bad, eggy, white meat,; also recorded: malty
MSG ENHANCEMENT Pork Burger + 0.03% MSG vs. 0.1% MSG, sensory description ([4]; 10 ppm in pork burger + 0.03% MSG): umami, sweet
MSG REPLACEMENT Cocido Ham vs. 0.1% MSG, sensory description ([4]; 20 ppm in cocido ham): stronger, ok, meaty, sweet, and good
MSG REPLACEMENT Marinated Chicken vs. 0.3% MSG, sensory description ([4]; 20 ppm in marinated chicken): meaty, umami balanced,; also recorded: seems salty
MSG REPLACEMENT Sour Cream & Onion Chips vs. 0.4% MSG, sensory description ([4]; 20 ppm in sour cream & onion chips): umami balanced, pleasant,; also recorded: lingering, less salty, good,; also recorded: full, salivating, sweet, more; also recorded: creamy
MSG ENHANCEMENT Chicken Bouillon + 0.01% MSG vs. 0.04% MSG, concentration ([4]; chicken bouillon + 0.01% MSG, vs. 0.04% MSG): 0.5 ppm
MSG REPLACEMENT Chicken Bouillon vs. 0.04% MSG, concentration ([4]; chicken bouillon, vs. 0.04% MSG): 4 ppm
MSG REPLACEMENT Cocido Ham vs. 0.1% MSG, concentration ([4]; cocido ham, vs. 0.1% MSG): 20 ppm
MSG ENHANCEMENT Crackers + 0.03% MSG vs. 0.1% MSG, concentration ([4]; crackers + 0.03% MSG, vs. 0.1% MSG): 10 ppm
concentration at which it performs as a MSG enhancer ([4]; depending on the application): 0.5-10 ppm
concentration at which it performs as a MSG replacer ([4]; depending on the application): 4-20 ppm
MSG ENHANCEMENT Marinated Chicken + 0.05% MSG vs. 0.3% MSG, concentration ([4]; marinated chicken + 0.05% MSG, vs. 0.3% MSG): 10 ppm
MSG REPLACEMENT Marinated Chicken vs. 0.3% MSG, concentration ([4]; marinated chicken, vs. 0.3% MSG): 20 ppm
MSG ENHANCEMENT Pork Burger + 0.03% MSG vs. 0.1% MSG, concentration ([4]; pork burger + 0.03% MSG, vs. 0.1% MSG): 10 ppm
MSG REPLACEMENT Pork Burger vs. 0.1% MSG, concentration ([4]; pork burger, vs. 0.1% MSG): 20 ppm
MSG ENHANCEMENT Sour Cream & Onion Chips + 0.05% MSG vs. 0.4% MSG, concentration ([4]; sour cream & onion chips + 0.05% MSG, vs. 0.4% MSG): 6 ppm
MSG REPLACEMENT Sour Cream & Onion Chips vs. 0.4% MSG, concentration ([4]; sour cream & onion chips, vs. 0.4% MSG): 20 ppm
mutagenicity, Ames plate incorporation test ([5]; absence of metabolic activation): not mutagenic
mutagenicity, Ames plate incorporation test ([5]; presence of metabolic activation): not mutagenic
solubility (solubility): good solubility
stability to day-light ([6]; day-light): stable
stability to heat ([6]; heat): stable
after-taste or off notes (human sensory panel): No after-taste or off notes are perceived
taste perception (human sensory panel; 3 ppm): very pleasant savory taste perception
